For four compounds, Activity results are on record in ChEMBL document CHEMBL2073880, “Heterologous expression of various P-glycoproteins in polarized epithelial cells induces directional transport of small (type 1) and bulky (type 2) cationic drugs” (J Pharmacol Exp Ther, 1998).

Holding throughout (assay type): functional, cell-based
In series [1] the target is T1, ATP-dependent translocase ABCB1 (Homo sapiens, UniProt P08183). The series is described as follows: TP_TRANSPORTER: transepithelial transport (basal to apical) in MDR1-expressing LLC-PK1 cells. The settings on record: pig.
T1 sequence (P08183 whole entry): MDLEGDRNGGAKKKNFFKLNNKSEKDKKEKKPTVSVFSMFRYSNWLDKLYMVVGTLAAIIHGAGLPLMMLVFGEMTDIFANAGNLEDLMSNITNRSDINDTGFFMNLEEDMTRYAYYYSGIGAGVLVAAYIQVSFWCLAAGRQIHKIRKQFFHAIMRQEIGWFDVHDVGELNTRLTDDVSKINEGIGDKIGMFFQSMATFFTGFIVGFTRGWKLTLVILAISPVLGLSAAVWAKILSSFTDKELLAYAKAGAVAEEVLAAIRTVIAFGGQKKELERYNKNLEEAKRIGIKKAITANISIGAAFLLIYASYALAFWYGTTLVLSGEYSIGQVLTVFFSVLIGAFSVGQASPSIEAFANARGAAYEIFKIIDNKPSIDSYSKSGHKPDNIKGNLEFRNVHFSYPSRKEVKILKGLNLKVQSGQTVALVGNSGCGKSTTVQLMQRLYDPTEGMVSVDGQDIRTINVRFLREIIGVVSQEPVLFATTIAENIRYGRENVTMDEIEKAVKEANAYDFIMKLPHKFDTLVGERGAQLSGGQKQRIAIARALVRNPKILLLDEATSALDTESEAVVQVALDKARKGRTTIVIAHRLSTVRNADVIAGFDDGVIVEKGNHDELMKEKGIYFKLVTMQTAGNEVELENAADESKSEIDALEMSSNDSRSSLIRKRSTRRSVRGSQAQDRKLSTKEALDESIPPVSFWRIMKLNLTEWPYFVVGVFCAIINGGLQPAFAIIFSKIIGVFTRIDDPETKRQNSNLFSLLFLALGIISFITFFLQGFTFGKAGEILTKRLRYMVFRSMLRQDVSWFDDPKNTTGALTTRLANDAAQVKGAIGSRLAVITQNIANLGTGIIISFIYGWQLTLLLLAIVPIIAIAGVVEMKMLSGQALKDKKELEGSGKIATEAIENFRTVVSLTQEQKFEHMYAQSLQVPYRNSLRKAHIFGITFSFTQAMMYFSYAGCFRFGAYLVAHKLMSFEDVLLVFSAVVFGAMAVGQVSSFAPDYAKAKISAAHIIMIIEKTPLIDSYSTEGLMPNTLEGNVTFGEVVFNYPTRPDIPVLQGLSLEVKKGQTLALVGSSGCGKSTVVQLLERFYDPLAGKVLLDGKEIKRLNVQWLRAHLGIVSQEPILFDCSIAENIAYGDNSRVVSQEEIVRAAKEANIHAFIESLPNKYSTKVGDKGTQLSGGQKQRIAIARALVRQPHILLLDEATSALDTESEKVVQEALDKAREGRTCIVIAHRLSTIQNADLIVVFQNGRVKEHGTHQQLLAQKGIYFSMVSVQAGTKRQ
For series [2], the target named is T2, ATP-dependent translocase ABCB1 (Mus musculus, UniProt P21447). The series is described as follows: TP_TRANSPORTER: transepithelial transport (basal to apical) in Mdr1a-expressing LLC-PK1 cells. The settings on record: pig.
T2 sequence (P21447 whole entry): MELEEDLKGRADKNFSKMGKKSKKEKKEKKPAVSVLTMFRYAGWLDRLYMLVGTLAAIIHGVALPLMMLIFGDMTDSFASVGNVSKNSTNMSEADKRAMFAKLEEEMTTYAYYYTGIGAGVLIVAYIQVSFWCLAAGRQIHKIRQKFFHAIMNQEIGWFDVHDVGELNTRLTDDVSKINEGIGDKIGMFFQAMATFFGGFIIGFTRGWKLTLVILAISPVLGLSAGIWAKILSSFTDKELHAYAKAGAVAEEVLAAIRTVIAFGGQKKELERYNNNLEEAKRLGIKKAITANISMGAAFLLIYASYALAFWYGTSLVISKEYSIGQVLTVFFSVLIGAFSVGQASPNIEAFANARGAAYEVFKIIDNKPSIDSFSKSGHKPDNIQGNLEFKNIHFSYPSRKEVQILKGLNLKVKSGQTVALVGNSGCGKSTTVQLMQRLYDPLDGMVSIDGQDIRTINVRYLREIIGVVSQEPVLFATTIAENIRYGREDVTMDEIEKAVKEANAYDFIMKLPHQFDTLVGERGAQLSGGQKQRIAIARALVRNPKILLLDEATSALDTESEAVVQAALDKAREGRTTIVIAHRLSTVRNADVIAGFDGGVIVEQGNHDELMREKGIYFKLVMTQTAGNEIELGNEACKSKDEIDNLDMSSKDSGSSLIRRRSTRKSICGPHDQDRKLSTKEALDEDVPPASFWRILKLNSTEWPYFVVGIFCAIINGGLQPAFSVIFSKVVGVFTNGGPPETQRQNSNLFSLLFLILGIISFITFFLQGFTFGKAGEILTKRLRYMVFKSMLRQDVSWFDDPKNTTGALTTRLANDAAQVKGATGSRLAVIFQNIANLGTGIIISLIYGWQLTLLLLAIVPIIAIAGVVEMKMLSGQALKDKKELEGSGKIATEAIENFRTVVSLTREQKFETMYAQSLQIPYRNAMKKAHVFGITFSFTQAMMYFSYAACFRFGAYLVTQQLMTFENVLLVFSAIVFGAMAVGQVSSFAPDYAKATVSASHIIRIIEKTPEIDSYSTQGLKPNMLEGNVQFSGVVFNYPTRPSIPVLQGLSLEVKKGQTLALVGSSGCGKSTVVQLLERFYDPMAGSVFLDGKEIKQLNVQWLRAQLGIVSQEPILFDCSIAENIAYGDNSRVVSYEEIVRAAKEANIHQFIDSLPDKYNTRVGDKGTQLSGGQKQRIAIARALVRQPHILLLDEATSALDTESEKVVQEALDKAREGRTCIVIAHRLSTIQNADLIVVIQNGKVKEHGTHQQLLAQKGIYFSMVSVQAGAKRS
Series [3] has as its target T1, ATP-dependent translocase ABCB1. The series is described as follows: TP_TRANSPORTER: inhibition of TBuMA transepithelial transport (basal to apical)(TBuMA: 10 uM, Vinblastine: 2 uM) in MDR1-expressing LLC-PK1 cells. The note with it: pig, llc-pk1, 2 µM.
Series [4] has as its target T2, ATP-dependent translocase ABCB1. Put plainly: TP_TRANSPORTER: inhibition of TBuMA transepithelial transport (basal to apical)(TBuMA: 10 uM, Vinblastine: 2 uM) in Mdr1a-expressing LLC-PK1 cells. The settings on record: pig, llc-pk1, 2 µM.
Series [5] has as its target T3, ATP-dependent translocase ABCB1 (Mus musculus, UniProt P06795). Put plainly: TP_TRANSPORTER: transepithelial transport (basal to apical) in Mdr1b-expressing LLC-PK1 cells. The settings on record: pig.
For series [6], the target named is T3, ATP-dependent translocase ABCB1. The series is described as follows: TP_TRANSPORTER: inhibition of TBuMA transepithelial transport (basal to apical)(TBuMA: 10 uM, Vinblastine: 2 uM) in Mdr1b-expressing LLC-PK1 cells. The settings on record: pig, llc-pk1, 2 µM.

T3 sequence (P06795 whole entry): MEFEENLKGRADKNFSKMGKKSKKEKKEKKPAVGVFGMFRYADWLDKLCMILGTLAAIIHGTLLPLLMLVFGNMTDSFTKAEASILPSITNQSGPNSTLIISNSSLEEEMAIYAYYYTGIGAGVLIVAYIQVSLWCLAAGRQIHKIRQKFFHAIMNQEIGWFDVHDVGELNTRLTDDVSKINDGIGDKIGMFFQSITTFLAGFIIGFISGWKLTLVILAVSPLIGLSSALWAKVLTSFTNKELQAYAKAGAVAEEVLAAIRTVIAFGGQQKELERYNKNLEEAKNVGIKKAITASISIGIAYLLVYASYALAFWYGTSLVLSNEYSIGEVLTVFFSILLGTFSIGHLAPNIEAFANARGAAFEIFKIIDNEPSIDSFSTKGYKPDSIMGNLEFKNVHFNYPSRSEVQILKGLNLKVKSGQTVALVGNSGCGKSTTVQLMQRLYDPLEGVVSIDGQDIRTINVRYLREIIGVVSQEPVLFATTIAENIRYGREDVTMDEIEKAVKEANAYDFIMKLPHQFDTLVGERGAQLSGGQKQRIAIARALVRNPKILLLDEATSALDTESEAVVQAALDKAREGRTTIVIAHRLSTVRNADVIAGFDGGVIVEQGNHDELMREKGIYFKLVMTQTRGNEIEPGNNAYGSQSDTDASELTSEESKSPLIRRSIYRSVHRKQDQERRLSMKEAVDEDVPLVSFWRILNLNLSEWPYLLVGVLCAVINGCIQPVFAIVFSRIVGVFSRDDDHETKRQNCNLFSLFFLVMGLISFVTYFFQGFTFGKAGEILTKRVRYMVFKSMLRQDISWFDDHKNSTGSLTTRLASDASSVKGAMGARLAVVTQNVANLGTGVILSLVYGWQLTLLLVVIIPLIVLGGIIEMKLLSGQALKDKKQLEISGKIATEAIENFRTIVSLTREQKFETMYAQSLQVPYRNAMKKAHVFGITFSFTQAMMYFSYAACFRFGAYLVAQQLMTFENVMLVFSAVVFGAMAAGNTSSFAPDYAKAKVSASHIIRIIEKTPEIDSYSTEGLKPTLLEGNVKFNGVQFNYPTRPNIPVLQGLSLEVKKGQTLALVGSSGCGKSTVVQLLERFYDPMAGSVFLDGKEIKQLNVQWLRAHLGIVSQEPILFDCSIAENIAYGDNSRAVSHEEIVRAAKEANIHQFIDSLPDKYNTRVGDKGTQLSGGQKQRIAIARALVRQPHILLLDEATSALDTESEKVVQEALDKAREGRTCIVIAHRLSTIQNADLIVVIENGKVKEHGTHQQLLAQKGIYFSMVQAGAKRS

Regarding `CC[N+](C)(CC)CCNC(=O)c1ccc(N=[N+]=[N-])cc1.[I-]` [AZIDOPROCAINAMIDE METHOIODIDE], the Activity entry in series [1] and in series [2] was “substrate [+]” each time.

In the case of `CC[C@]1(O)C[C@@H]2CN(CCc3c([nH]c4ccccc34)[C@@](C(=O)OC)(c3cc4c(cc3OC)N(C)[C@H]3[C@@](O)(C(=O)OC)[C@H](OC(C)=O)[C@]5(CC)C=CCN6CC[C@]43[C@@H]65)C2)C1` [VINBLASTINE], the Activity entry in series [3] is “inhibitor [+]”; in series [2] it was “substrate [+]”; in series [4] it was “inhibitor [+]”; in series [5], “substrate [+]”; in series [6], “inhibitor [+]”.

For the compound `CCCC[N+](C)(CCCC)CCCC` [TRIBUTYLMETHYLAMMONIUM], the Activity result in series [1], in series [2] and in series [5] was “substrate [+]” throughout.

In the case of `CC(=O)O[C@H]1C[C@@H]2CC[C@@H]3[C@H](CC[C@@]4(C)[C@H]3C[C@H]([N+]3(C)CCCCC3)[C@@H]4OC(C)=O)[C@@]2(C)C[C@@H]1N1CCCCC1` [VECURONIUM], the Activity entry in series [1], in series [2] and in series [5] was “substrate [+]” in each case.
